Source: patent US12239645B2, “Targeted dosing for the treatment of complement mediated disorders” (Achillion Pharmaceuticals, Inc., priority 2018, dated 2025)
Where two headings read alike, the source gives them in different places.

What was measured:
[1] = Multiple ascending dose (MAD) study: multiple-dose pharmacokinetics; format: in vivo, human; details: for concentration at 120 h: Day 6, 0 hr post-dose (120 h); for concentration at 120 h / concentration at 132 h / concentration at 144 h / concentration at 156 h / concentration at 168 h / concentration at 192 h / concentration at 288 h / concentration at 300 h / concentration at 312 h / concentration at 324 h: read-out: Pre-dose (trough) plasma concentration, Mean; for concentration at 132 h: Day 6, 12 hr post-dose (132 h); for concentration at 144 h: Day 7, 0 hr post-dose (144 h); for concentration at 156 h: Day 7, 12 hr post-dose (156 h); for concentration at 168 h: Day 8, 0 hr post-dose (168 h); for concentration at 192 h: Day 9, 0 hr post-dose (192 h); for concentration at 288 h: Day 13, 0 hr post-dose (288 h); for concentration at 300 h: Day 13, 12 hr post-dose (300 h); for concentration at 312 h: Day 14, 0 hr post-dose (312 h); for concentration at 324 h: Day 14, 12 hr post-dose (324 h)
Method: A multiple ascending dose (MAD) study of Compound 1 with two additional single-dose cohorts was also completed. […] Secondary objectives included evaluation of the pharmacokinetic (PK) profile and the relationship between Compound 1 PK and pharmacodynamic (PD) characteristics, that is, the inhibition of complement alternative pathway (AP) activity (PK/PD). In the MAD study, multiple-dose pharmacokinetics and pharmacodynamics of Compound 1 were evaluated in four dose groups administered Compound 1 (40, 80, 120 and 200 mg BID) in the fasted state for 14-days (Table 3). Eight subjects received active drug in each group; eight subjects received placebo in the first dose group (40 mg) and two subjects received placebo in each of the other three dose groups. Two additional cohorts were administered Compound 1 at single doses of 240 mg (fasted subjects) and 120 mg (fed subjects) (Table 3). The two single-dose cohorts each comprised six subjects receiving active drug and two subjects receiving placebo. Plasma and serum samples for PK and PD assessment were collected on selected days prior to dosing (at local troughs), and on days 1, 7, and 14 at 0.5-hour to 2-hour intervals for more detailed assessment.

[2] = tested on: complement alternative pathway (AP) functional activity; assay: SAD study: alternative pathway functional activity by AP Wieslab assay; format: in vivo, human
Method: […] were dosed and evaluated in 4 dose groups with ten subjects receiving placebo (Table 1). The first dose group had 6 active and 6 placebo subjects; subsequent groups had 6 active and 2 placebo subjects each. Each group was followed for 28 days after dosing. All subjects were monitored for safety through the last scheduled visit at Day 28. Blood and urine samples were collected at predefined time points from Days 1 to 4 to determine plasma and urine concentrations of Compound 1 and from Days 1 to 7 to determine complement related activities. Results of serum AP activity measured by AP Wieslab assay as well as plasma Bb, factor D level and several other PD biomarkers were determined.
For all subjects, blood samples were collected at specific protocol-defined time points from Day 1 to 7 to determine serum AP activity ex vivo using AP hemolysis assay and AP Wieslab assay.
A graphical display of mean complement AP functional activity (% relative to positive control) through Day 7 (reported in days) and within 24 hours of dosing (by randomized treatment group and overall) can be found in FIG. 8B and FIG. 8A, respectively.

[3] = human, plasma, oral, 120 mg, 120 mg BID
[4] = human, plasma, oral, 200 mg, 200 mg BID

concentration at 12 hr ([1]; human, plasma, oral, 80 mg, 80 mg BID, all 12 hr (evening) troughs, read-out: Mean C(12), steady-state trough): 45.9 ng/mL
concentration at 12 h ([1]; human, plasma, oral, 120 mg BID, all 12 hr (evening) troughs, read-out: Mean C(12), steady-state trough): ~80 ng/mL
Tmax ([1]; human, plasma, oral, 120 mg, 120 mg BID × 14 Days, Day 1): 2 h
AUC(0-t) ([1]; human, plasma, oral, 120 mg, 120 mg BID × 14 Days, Day 1, read-out: AUC(0-12), Mean): 1200 ng·h/mL
Cmax ([1]; human, plasma, oral, 120 mg, 120 mg BID × 14 Days, Day 1, read-out: Cmax, Mean): 353 ng/mL
Tmax ([1]; human, plasma, oral, 120 mg, 120 mg BID × 14 Days, Day 7): 1.75 h
AUC(0-t) ([1]; human, plasma, oral, 120 mg, 120 mg BID × 14 Days, Day 7, read-out: AUC(0-12), Mean): 3880 ng·h/mL
AUC(0-t) ([1]; human, plasma, oral, 120 mg, 120 mg BID × 14 Days, Day 7, read-out: AUC(0-24), Mean): 7750 ng·h/mL
Cmax ([1]; human, plasma, oral, 120 mg, 120 mg BID × 14 Days, Day 7, read-out: Cmax, Mean): 885 ng/mL
Tmax ([1]; human, plasma, oral, 120 mg, 120 mg BID × 14 Days, Day 14): 2.5 h
AUC(0-t) ([1]; human, plasma, oral, 120 mg, 120 mg BID × 14 Days, Day 14, read-out: AUC(0-12), Mean): 3990 ng·h/mL
AUC(0-t) ([1]; human, plasma, oral, 120 mg, 120 mg BID × 14 Days, Day 14, read-out: AUC(0-24), Mean): 7990 ng·h/mL
Cmax ([1]; human, plasma, oral, 120 mg, 120 mg BID × 14 Days, Day 14, read-out: Cmax, Mean): 887 ng/mL
concentration at 120 h [1, 3]: 165 ng/mL
concentration at 132 h [1, 3]: 90.6 ng/mL
concentration at 144 h [1, 3]: 125 ng/mL
concentration at 156 h [1, 3]: 67.2 ng/mL
concentration at 168 h [1, 3]: 164 ng/mL
concentration at 192 h [1, 3]: 156 ng/mL
concentration at 288 h [1, 3]: 136 ng/mL
concentration at 300 h [1, 3]: 88 ng/mL
concentration at 312 h [1, 3]: 173 ng/mL
concentration at 324 h [1, 3]: 76.6 ng/mL
Cmax ([1]; human, plasma, oral, 120 mg, 120 mg BID, read-out: Cmax): < 1000 ng/mL
Tmax ([1]; human, plasma, oral, 200 mg, 200 mg BID × 14 Days, Day 1): 1.63 h
AUC(0-t) ([1]; human, plasma, oral, 200 mg, 200 mg BID × 14 Days, Day 1, read-out: AUC(0-12), Mean): 1820 ng·h/mL
Cmax ([1]; human, plasma, oral, 200 mg, 200 mg BID × 14 Days, Day 1, read-out: Cmax, Mean): 440 ng/mL
Tmax ([1]; human, plasma, oral, 200 mg, 200 mg BID × 14 Days, Day 7): 2.06 h
AUC(0-t) ([1]; human, plasma, oral, 200 mg, 200 mg BID × 14 Days, Day 7, read-out: AUC(0-12), Mean): 9350 ng·h/mL
AUC(0-t) ([1]; human, plasma, oral, 200 mg, 200 mg BID × 14 Days, Day 7, read-out: AUC(0-24), Mean): 18700 ng·h/mL
Cmax ([1]; human, plasma, oral, 200 mg, 200 mg BID × 14 Days, Day 7, read-out: Cmax, Mean): 1870 ng/mL
Tmax ([1]; human, plasma, oral, 200 mg, 200 mg BID × 14 Days, Day 14): 1.81 h
AUC(0-t) ([1]; human, plasma, oral, 200 mg, 200 mg BID × 14 Days, Day 14, read-out: AUC(0-12), Mean): 8240 ng·h/mL
AUC(0-t) ([1]; human, plasma, oral, 200 mg, 200 mg BID × 14 Days, Day 14, read-out: AUC(0-24), Mean): 16500 ng·h/mL
Cmax ([1]; human, plasma, oral, 200 mg, 200 mg BID × 14 Days, Day 14, read-out: Cmax, Mean): 1630 ng/mL
concentration at 120 h [1, 4]: 431 ng/mL
concentration at 132 h [1, 4]: 241 ng/mL
concentration at 144 h [1, 4]: 385 ng/mL
concentration at 156 h [1, 4]: 241 ng/mL
concentration at 168 h [1, 4]: 381 ng/mL
concentration at 192 h [1, 4]: 377 ng/mL
concentration at 288 h [1, 4]: 376 ng/mL
concentration at 300 h [1, 4]: 272 ng/mL
concentration at 312 h [1, 4]: 415 ng/mL
concentration at 324 h [1, 4]: 235 ng/mL
concentration at 12 hr ([1]; human, plasma, oral, 200 mg, 200 mg BID, all 12 hr (evening) troughs, read-out: Mean C(12), steady-state trough): 247 ng/mL
Cmax ([1]; human, plasma, oral, 200 mg, 200 mg BID, read-out: Cmax): < 2000 ng/mL
C0 at 0 h ([1]; human, plasma, oral, 40 mg BID, all 0 hr (morning) troughs, read-out: Mean C(0), steady-state trough): 23.4 ng/mL
C0 at 0 hr ([1]; human, plasma, oral, 80 mg BID, all 0 hr (morning) troughs, read-out: Mean C(0), steady-state trough): 83.7 ng/mL
C0 at 0 hr ([1]; human, plasma, oral, 120 mg BID, all 0 hr (morning) troughs, read-out: Mean C(0), steady-state trough): 153 ng/mL
C0 at 0 hr ([1]; human, plasma, oral, 200 mg BID, all 0 hr (morning) troughs, read-out: Mean C(0), steady-state trough): 392 ng/mL
diurnal metabolic pattern ([1]; humans, BID dosing, C(0) morning vs C(12) evening): exhibits a diurnal metabolic pattern
Compound: CC(=O)c1nn(CC(=O)N2[C@H](C(=O)Nc3nc(Br)ccc3C)C[C@@]3(C)C[C@@H]23)c2ccc(-c3cnc(C)nc3)cc12 [Compound 1, (1R,3S,5R)-2-(2-(3-acetyl-5-(2-methylpyrimidin-5-yl)-1H-indazol-1-yl)acetyl)-N-(6-bromo-3-methylpyridin-2-yl)-5-methyl-2-azabicyclo[3.1.0]hexane-3-carboxamide]
time mean inhibition of 90% or greater maintained post-dosing ([2]; 40 mg dose group): at least 6 hours
time of nadir in AP functional activity post-dose ([2]; 40 mg dose group): 1.5 h
lowest mean (±SD) AP functional activity (relative to positive control) ([2]; 40 mg single dose): 1.25 (±1.153) %
time of nadir in AP functional activity post-dose ([2]; 80 mg and 120 mg dose groups): 3 h
lowest mean (±SD) AP functional activity (relative to positive control) ([2]; 80 mg single dose): 0.13 (±0.097) %
lowest mean (±SD) AP functional activity (relative to positive control) ([2]; 120 mg single dose): 0.09 (±0.102) %
Inhibition of AP functional activity ([2]; all subjects, by 2 hours post-dose): > 90%
Inhibition of AP functional activity ([2]; all treated subjects, 0.5 hours post-dose): > 80%
time mean inhibition of 90% or greater maintained post-dosing ([2]; higher dose groups studied): at least 10 hours
